Measured values published in paper PMC4122966, “Novel VCP modulators mitigate major pathologies of rd10, a mouse model of retinitis pigmentosa” (Scientific Reports, 2014).

Assays:
[1] = test system: HeLa cells; test: immunocytochemistry of laminin γ1 aggregation in tunicamycin-treated cells; type: cell-based
Experimental: (§1) Figure 4 KUSs and ATP each prevented a decrease of ATP levels and ameliorated ER stress in tunicamycin-treated cells. (a) Immunocytochemical analyses of HeLa cells by an anti-laminin γ1 antibody. HeLa cells were treated with 0.5 μg/ml of tunicamycin (Tm) for 5 hours in the presence of KUSs (50 μM), ATP (0.1, 0.3, and 1 mM), methylpyruvate (MePyr) (3 and 10 mM), or vehicle alone (DMSO). Then, cells were fixed and subjected to immunocytochemical analyses. Normally growing HeLa cells were also analyzed (Control). Scale bar, 10 μm. (b) Measurements of the relative amounts of ATP per cell. HeLa cells were treated with tunicamycin (Tm, 0.5 μg/ml) for 24 hours in the presence of KUSs (50 μM) or ATP (0.1 and 1 mM), or vehicle alone (DMSO), and were harvested. Then, ATP amounts from 1.5 × 10^5 cells were measured. * P < 0.05, ** P < 0.01. Error bars indicate SD. (c) Western blot analyses on CHOP. HeLa cells were treated with 0.5 μg/ml of tunicamycin for 5 hours in the presence of KUSs (50 μM), ATP (0.1, 0.3, and 1 mM), methylpyruvate (MePyr) (3 and 10 mM), or vehicle alone (-). Then, cells were harvested and subjected to western blot analyses. Actin served as a loading control. Complete scans of the different blots are presented in Supplementary Fig. 9.

[2] = test system: HeLa cells; test: relative ATP amounts per cell in tunicamycin-treated cells; type: cell-based; conditions: Tm 0.5 μg/ml, 24 hours, ATP 0.1 and 1 mM
Experimental: as §1

[3] = test system: tunicamycin-treated HeLa cells; test: western blot of ER stress markers and phospho-Akt in tunicamycin-treated cells; type: cell-based; conditions: Tm 0.5 μg/ml, 5 hours, 0.1 mM ATP
Experimental: Figure 2 Prevention of cell death and ER stress by KUSs. (a) Photographs of HeLa cells, cultured with DMSO (DMSO) or KUSs (KUS94, KUS121, and KUS187, 20 μM each) for 41 hours in low glucose (0.2 g/l) medium. Scale bar, 100 μm. (b–e) WST (water-soluble tetrazolium salts) values reflecting relative live cell numbers are shown, as optical density (OD) at 450 nm. Error bars indicate SD. (b) WST values of HeLa cells, cultured in low glucose (0.2 g/l) with DMSO (control) or KUSs (50 μM for KUS121; 20 μM for KUS69, KUS94, and KUS187, n = 3) for 41 hours. (c) Cell viability, indicated by WST values of HeLa cells, cultured with tunicamycin (Tm) (0.2 μg/ml) for 41 hours with KUSs (20 μM each, n = 3). (d) WST values of HEK293 cells, cultured under serum-free conditions for 65 hours with DMSO (control) or KUSs (20 μM each, n = 3). *** P < 0.001, vs. DMSO control (Dunnett's test). (e) WST values of HeLa cells, cultured in low glucose (0.2 g/l) medium with different concentrations of KUS121 (5, 10, 20, and 50 μM, n = 3) for 41 hours. ** P = 0.008, *** P < 0.001, vs. DMSO control (Dunnett's test). […]
Figure 4 KUSs and ATP each prevented a decrease of ATP levels and ameliorated ER stress in tunicamycin-treated cells. […] Normally growing HeLa cells were also analyzed (Control). […] Then, ATP amounts from 1.5 × 10^5 cells were measured. * P < 0.05, ** P < 0.01. […]

[4] = test system: HeLa cells; test: cell death-inducing activity; type: cell-based; conditions: 50 μM, 24 hours
Text: (§2) Figure 1 Structures and characterization of KUSs, novel VCP modulators. (a) Structures and IC50 values of KUS11, KUS31, KUS69, KUS94, KUS121, and KUS187. […] (b) ATPase activity assays of recombinant human […], comparing KUSs and DBeQ. (c) Immunoblot analysis of ubiquitinated proteins, an ER stress marker (CHOP), and an autophagy indicator (LC3), comparing KUSs and DBeQ. As a control, MG132, a proteasome inhibitor, was used for the analysis. Actin served as a loading control. Complete scans of the different blots are presented in Supplementary Fig. 7. (d) Comparison of KUSs and DBeQ for cell death-inducing activities. HeLa cells were treated with 50 μM DBeQ or KUSs for 24 hours. […]

[5] = test system: cellular VCP functions; test: immunoblot of ubiquitinated proteins, CHOP (ER stress) and LC3 (autophagy) in cultured cells; type: cell-based
Text: as §2

[6] = test system: VCP; parameters: method as in PMID 21383145; conditions: reported value; read-out: in vitro IC50 (half maximal inhibitory concentration) for VCP; cited from earlier work

| SMILES | aggregation of laminin γ1 ([1]; HeLa, Tm 0.5 μg/ml, 5 hours, 0.1 mM ATP) | aggregation of laminin γ1 ([1]; HeLa, Tm 0.5 μg/ml, 5 hours, 1 mM ATP) | aggregation of laminin γ1 ([1]; tunicamycin-treated HeLa cells, ATP at 0.3 to 1 mM) | decrease of ATP levels in tunicamycin-treated cells [2] | induction of ER stress (CHOP induction) [3] | induction of cell death [4] | induction of accumulation of ubiquitinated proteins, ER stress (CHOP), autophagy (LC3) [5] | IC50 [6] [µM] |
| --- | --- | --- | --- | --- | --- | --- | --- | --- |
| Nc1ncnc2c1ncn2[C@@H]1O[C@H](COP(=O)(O)OP(=O)(O)OP(=O)(O)O)[C@@H](O)[C@H]1O [ATP] | ineffective in preventing the aggregation of laminin γ1 | clearly prevented the aggregation of laminin γ1 | prevented the aggregation of laminin γ1 | prevented decreases of ATP levels | dampen the induction of ER stress |  |  |  |
| c1ccc(CNc2nc(NCc3ccccc3)c3ccccc3n2)cc1 [DBeQ, reference compound] |  |  |  |  |  | eventually cell death | induced accumulation of ubiquitinated proteins, ER stress, autophagy | 1 |
